The values that follow come from patent US20240197677A1 (VIVIER CANADA INC., priority 2016, published 2024).

The conditions of data set [1]: cited from earlier work.
Data set [2] has as its system EpiDermFT™ (EFT-400) human in vitro tissue model.
Description: EFT-400 tissues were treated with test compound every 48 hours for 4, 7 and 10 days.
Epidermal thickness was assessed by measuring 10 random regions of the Hematoxylin and Eosin (H&E) stained tissue sections using OlyVIA™ software.

As for `O=C1O[C@H]([C@@H](O)CO)C(O)=C1O` [Vitamin C, L-ascorbic acid, reference compound], the pKa entry in data set [1] is “around 4.17”.
As to `Cl.Cl.NCCCCN` [putrescine, 1,4-Diaminobutane dihydrochloride], the pKa in data set [1] is listed as 10.51. Besides, the “Thickness of H&E stained tissue sections (FIGS. 1A-F)” value in data set [2] (0.1% Putrescine for 4 days) is “increased thickness”. In addition, in data set [2] (0.1% Test Article, EFT-400 Tissue1, average of 10 regions), the “Epidermis Thickness, Tissue1, Av.” value turned out to be 113.846 μm. In addition, the “Epidermis Thickness, Tissue2, Av.” value in data set [2] (0.1% Test Article, EFT-400 Tissue2, average of 10 regions) was 117.160 μm. In addition, the “Epidermis Thickness, Tissue3, Av.” value in data set [2] (0.1% Test Article, EFT-400 Tissue3, average of 10 regions) was 121.676 μm. Moreover, the “Epidermis Thickness, Av. of three tissues” value in data set [2] (0.1% Test Article, average over Tissue1-3 (untreated 80.264 μm)) came out at 117.561 μm. The “Average increase of epidermal thickness versus untreated tissues” value in data set [2] (0.1% putrescine) was “over 46%”. Moreover, the “Epidermal thickness, average” value in data set [2] (0.1% putrescine basolaterally in culture medium, 10 random regions of H&E sections) is 117.561 μm. Also, the “Epidermal tissue thickness, visual (Cytokeratin 10 / desmoplakin-1 immunostaining)” value in data set [2] (after 4 days, 0.1% Putrescine) is recorded as “visually appear thicker than the untreated control tissues”. Further, the Tissue morphology entry in data set [2] (day 4, 0.1% Putrescine) was “consistent with healthy tissue”.

Usually pKa stands for the negative logarithm of the acid dissociation constant.
